Earlier results as cited in patent US6444675B2, “4-alkyl and 4-cycloalkyl derivatives of dihydropyridine NPY antagonists” (Bristol-Myers Squibb Company, priority 2000, dated 2002).

Legend:
[1] = target: T1, I-125 Bolton-Hunter labeled NPY in human neuroblastoma cells (SK-N-MC) (Homo sapiens, UniProt P25929)
T1 construct: displaces I-125 Bolton-Hunter labeled NPY in human neuroblastoma cells (SK-N-MC); host or cells: SK-N-MC human neuroblastoma cells (endogenous receptor)
T1 sequence (P25929 1-384): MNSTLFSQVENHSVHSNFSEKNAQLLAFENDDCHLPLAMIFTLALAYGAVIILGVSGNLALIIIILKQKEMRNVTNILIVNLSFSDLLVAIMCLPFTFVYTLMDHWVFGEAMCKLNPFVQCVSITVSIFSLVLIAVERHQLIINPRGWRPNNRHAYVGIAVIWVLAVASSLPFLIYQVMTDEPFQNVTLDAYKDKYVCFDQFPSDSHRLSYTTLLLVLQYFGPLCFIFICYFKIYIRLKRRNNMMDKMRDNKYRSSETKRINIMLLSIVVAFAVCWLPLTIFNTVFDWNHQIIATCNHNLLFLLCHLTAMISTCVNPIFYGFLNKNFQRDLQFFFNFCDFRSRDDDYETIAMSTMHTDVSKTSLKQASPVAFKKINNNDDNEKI

[2] = test system: NPY-induced pressor response; settings: pithed rat
[3] = test system: NPY-induced increase in intracellular Ca++ in SK-N-MC cells
[4] = test system: NPY-induced contractions in guinea pig basilar artery
[5] = target: T2, I-125 labeled NPY and PYY in human neuroblastoma cells (Homo sapiens, UniProt P25929)
T2 construct: displacing I-125 labeled NPY and PYY in human neuroblastoma cells; endogenous receptor
T2 sequence (P25929 1-384): T1 sequence (P25929 1-384)

[6] = test system: NPY-related increases in diastolic blood pressure; settings: anesthetized guinea pig model

For `NC(N)=NCCC[C@@H](NC(=O)C(c1ccccc1)c1ccccc1)C(=O)NCc1ccc(O)cc1` [BIBP 3226], the “displacement of I-125 Bolton-Hunter labeled NPY” value [1] is listed as “displaces”, the “antagonism of NPY-induced pressor response” value [2] is listed as “antagonizing” and the “antagonism of NPY-induced increase in intracellular Ca++” value [3] is listed as “antagonized”.
In the case of `O=P(O)(O)OC1[C@H](OP(=O)(O)O)[C@H](O)C(O)[C@H](O)[C@H]1OP(=O)(O)O` (stereo partly drawn) [D-Myo-inositol-1,2,6-triphosphate], the “antagonism of NPY-induced contractions” value [4] is given as “potent but non-competitive antagonist”.
For `CN(C)CC1CCC(CN=C(N)c2ccc(C[C@@H](NC(=O)[C@@H](Cc3ccccc3)NS(=O)(=O)c3ccc4ccccc4c3)C(=O)N3CCCC3)cc2)CC1` (stereo partly drawn) [SR 120819A], the “displacement of I-125 labeled NPY and PYY” value [5] is given as “displacing” and the “antagonism of NPY-related increases in diastolic blood pressure” value [6] is given as “antagonized”.
